Experimental data as given in US20250154135A1, “M-CHOLINE RECEPTOR AGONIST COMPOUND, PREPARATION METHOD THEREFOR AND USE THEREOF” (NANJING GRITPHARMA CO., LTD., priority 2022, published 2025).

How the values were obtained:
rabbit pupil [1] = experiment: Miosis effect of 0.915% compound solutions in rabbits (Test Example 4); type: in vivo; settings: at half of the concentration of the pilocarpine hydrochloride
Protocol: Each rabbit in each group was subjected to single eye drop administration in the left eye, with an administration volume of 100 μL. The pupil and iris diameters of the left eye of the rabbits were measured at time points of −0.5 h (i.e., half an hour before administration), 0.5 h, 3 h, and 4 h relative to administration (observation time points were extended if necessary), with the measurement performed 5 times for each rabbit at each time point. The entire measurement process was completed by the same person.
• Reagents: normal saline (specification: 500 mL: 4.5 g), purchased from Jiangxi Kelun Pharmaceutical Co., Ltd.; • compound 1 and compound 2 (from Nanjing Jiqun Pharmaceutical Technology Co., Ltd.); • 1) a compound 1 solution at a concentration of 0.915% prepared using normal saline; • 2) a compound 2 solution at a concentration of 0.915% prepared using normal saline.
The miosis effects of the 0.915% compound 1 solution and the 0.915% compound 2 solution were determined using the method in Test Example 2, and the determination results are shown in Tables 4-1 and 4-2 below.

rabbit pupil [2] = experiment: Rabbit pupil constriction after single eye drop (Test Example 1); type: in vivo, New Zealand rabbit; settings: rabbits, Test Example 1 solutions
Protocol: Except for group 5), the eye drop solutions of groups 1) to 12) described above contained an equimolar concentration of pilocarpine. The molar concentration of pilocarpine in the eye drop solution of group 5) was half of the molar concentration of pilocarpine in the solutions of the other 11 groups.
The effects of the eye drop solutions of groups 1) to 12) prepared above on rabbit pupil constriction and irritation were tested separately.
• Species and strain: New Zealand rabbit • Grade: normal • Source: Qinglongshan Animal Breeding Farm, Jiangning District, Nanjing • Production license No.: SCXK (Su) 2016-0008 • Animal age: about 110 days old at the time of administration • Animal body weight: about 2.5-3.5 kg at the time of administration • Animal sex: all male • Feed: rabbit pellet feed • Housing conditions: air-conditioned room, with a temperature of 18-26° C. and a relative humidity of 40%-80%.
• Digital vernier caliper: specification: 0-150 mm; measurement accuracy: 0.01 mm; manufacturer: Guilin Guanglu Measuring Instrument Co., Ltd.
Each rabbit was subjected to eye drop administration in the left eye (using a pipette), with an administration volume of 100 μL.
• Number of animals: for JQ series compounds, 6 rabbits per compound; for compounds 1, 2 and 4, 5 rabbits per compound. • Administration schedule: single administration. Measurement indicators and time points: • for JQ series compounds, the pupil diameter of the left eye of the rabbits was measured at time points of −0.5 h (i.e., half an hour before administration), 5 min, 10 min, 15 min, 0.5 h, 3 h and 4 h relative to administration, with the measurement repeated 3 times for each rabbit at each time point (measurement time points were extended if necessary); • for compounds 1, 2 and 4, the pupil diameter of the left eye of the rabbits was measured at time points of 3 h and 4 h relative to administration, with the measurement repeated 3 times for each rabbit at each time point (measurement time points were extended if necessary).
Percentage change in pupil diameter (%) after administration=(pupil diameter after administration−pupil diameter before administration)/pupil diameter before administration×100%
The measurement result for each rabbit at each time point was represented by the average value of three measurements.

Compound | miosis effect compared to pilocarpine hydrochloride (rabbit pupil [1]) | pupil constriction (miosis) effect at 3 h after administration (rabbit pupil [2])
CC[C@@H]1C(=O)OC[C@@H]1Cc1cncn1C [Compound 1] | comparable to the effect of pilocarpine hydrochloride | still showed miosis effect
CC[C@@H]1C(=O)OC[C@@H]1Cc1cncn1C [Compound 2] | comparable to the effect of pilocarpine hydrochloride | still showed miosis effect
